Structures can show the parent of a compound that is named as a salt.
Columns and labels:
[1] = rat, in vivo, po; cited from earlier work
[2] = test system: SH-SY5Y neuroblastoma cells; test: MTT cell viability assay, Aβ(25–35)-induced neurotoxicity; type: cell-based; details: Aβ(25–35) 25 μM
Method: Cells were cultured in MEM supplemented with 10% heat-inactivated defined FBS, and an antibiotic mixture of 100 units/mL of penicillin and 100 μg/mL streptomycin, and grown at 37 °C in a humid atmosphere with 5% CO2.
Following the treatment, cell viability was assessed using MTT reduction assay. After adding 10 μL/well of MTT (5 mg/L) and incubating for 4 h, the supernatants were removed and 100 μL of DMSO was added in wells. After 1 h incubation at room temperature in the microshaker, the absorbance of the sample was measured by the microplate spectrophotometer reader (Molecular Devices, Sunnyvale, CA, USA) at 570 nm. The cell viability rate (%) was calculated as the absorbance of treated cells divided by that of control cells. The viability of the control cells was defined as 100%. Three independent experiments were performed in triplicate.

Molecule | donepezil excreted into urine [1] [%] | reduction of cell viability compared to vehicle treatment [2] [%]
COc1cc2c(cc1OC)C(=O)C(CC1CCN(Cc3ccccc3)CC1)C2 (centres unmarked) [DNP, Donepezil hydrochloride] | 1.52 | –
Aβ(25–35): β-amyloid fragment used to induce neurotoxicity in SH-SY5Y cells (GSNKGAIIGLM; Amyloid-beta protein 42; UniProt P05067 696-706, looked up, fragment) | – | 36.0

From article PMC8434012 (Molecules, 2021)
